One assay has as its target T1, Human PKK (Homo sapiens, UniProt P03952).
T1 construct: purchased Enzyme Research Laboratories
Briefly: Inhibition of PKK using an endpoint assay (human PKK). The note with it: fluorogenic substrate H-Pro-Phe-Arg-AMC, 1 h room temperature, method names human or rat PKK, table does not say which. The class given is biochemical. In outline: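 Endpoint fluorescence (ex 355 nm, em 460 nm) after stopping with 1 μM final PPACK II. Buffer: Tris 100 mM pH 7.8, NaCl 150 mM, BSA 0.1%, Tween20 0.05%, with 1% DMSO present; enzyme is human plasma kallikrein.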

The target of assay [1] is T2, PKK in kaolin activated human platelet poor plasma (Homo sapiens, UniProt P03952).
T2 construct: Platelet poor plasma (PPP) obtained from human wholeblood; from tissue
Briefly: Inhibition of PKK in kaolin activated human PPP.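 Also: readout is the rate of fluorogenic substrate cleavage in rfu per min.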 The following applies: 25-750 μg/mL kaolin, global fit, text b200 calls the values IC90. The assay is classed as biochemical. The protocol: Platelet poor plasma (PPP) obtained from human wholeblood, anticoagulated with Na-Citrate, is incubated with various concentrations of the test compound together with either 25, 75, 250, or 750 μg/mL kaolin in assay buffer for 20 min at 37° C. such that for each kaolin dose used a concentration response is obtained for the test compound.

T1 sequence (P03952 20-390 limits assumed): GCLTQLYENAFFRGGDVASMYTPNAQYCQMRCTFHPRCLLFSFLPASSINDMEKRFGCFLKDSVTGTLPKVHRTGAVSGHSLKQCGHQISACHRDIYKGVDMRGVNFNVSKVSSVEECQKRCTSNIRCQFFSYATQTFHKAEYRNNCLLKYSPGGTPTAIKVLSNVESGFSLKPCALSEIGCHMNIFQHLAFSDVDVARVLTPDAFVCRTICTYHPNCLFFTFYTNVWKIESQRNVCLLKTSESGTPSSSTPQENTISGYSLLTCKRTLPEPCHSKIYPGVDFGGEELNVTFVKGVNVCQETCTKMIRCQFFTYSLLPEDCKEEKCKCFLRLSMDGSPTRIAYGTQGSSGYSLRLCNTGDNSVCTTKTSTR
T1 sequence (P03952 391-638 limits assumed): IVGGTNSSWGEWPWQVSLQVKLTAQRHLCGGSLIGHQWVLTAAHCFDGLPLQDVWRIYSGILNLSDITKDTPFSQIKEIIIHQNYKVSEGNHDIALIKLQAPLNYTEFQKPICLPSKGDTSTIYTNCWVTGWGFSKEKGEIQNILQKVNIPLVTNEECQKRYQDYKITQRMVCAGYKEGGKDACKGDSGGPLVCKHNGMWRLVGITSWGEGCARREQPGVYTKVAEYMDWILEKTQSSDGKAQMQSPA
T2 sequence (P03952 391-638 limits assumed): as above
T2 sequence (P03952 20-390 limits assumed): as the sequence (P03952 20-390 limits assumed) above

On to `CCc1nc(N2CC3C(C2)C3(F)F)ccc1Cc1cc(C(=O)N[C@@H]2CCc3c2ncn3C)n(C(C)C)n1` (stereo partly drawn) [Example 160, 3-[(6-{6,6-Difluoro-3-azabicyclo[3.1.0]hexan-3-yl}-2-ethylpyridin-3-yl)methyl]-N-[(4R)-1-methyl-1H,4H,5H,6H-cyclopenta[d]imidazol-4-yl]-1-(propan-2-yl)-1H-pyrazole-5-carboxamide], for which the results for the IC50 (against Human PKK; in assay [1]) were 0.0022 µM and 0.967 µM, respectively.
The like results for `CCc1nc(N2CC3C(C2)C3(F)F)ccc1Cc1cc(C(=O)N[C@@H]2CCc3c2ncn3C)n(CC)n1` (stereo partly drawn) [Example 161, 3-[(6-{6,6-Difluoro-3-azabicyclo[3.1.0]hexan-3-yl}-2-ethylpyridin-3-yl)methyl]-1-ethyl-N-[(4R)-1-methyl-1H,4H,5H,6H-cyclopenta[d]imidazol-4-yl]-1H-pyrazole-5-carboxamide] were, in that order, 0.0015 µM and 0.431 µM.
Take `CCc1nc(N2CC3CC3C2)ccc1Cc1cc(C(=O)N[C@@H]2CCc3c2ncn3C)n(CC)n1` (stereo partly drawn) [Example 162, 3-[(6-{3-Azabicyclo[3.1.0]hexan-3-yl}-2-ethylpyridin-3-yl)methyl]-1-ethyl-N-[(4R)-1-methyl-1H,4H,5H,6H-cyclopenta[d]imidazol-4-yl]-1H-pyrazole-5-carboxamide]: the values for the IC50 (at Human PKK; in assay [1]) were 0.0011 µM and 0.231 µM, respectively.
For `CCn1nc(Cc2ccc(N3CC4C(C3)C4(F)F)nc2C)cc1C(=O)N[C@@H]1CCc2c1ncn2C` (stereo partly drawn) [Example 163, 3-[(6-{6,6-Difluoro-3-azabicyclo[3.1.0]hexan-3-yl}-2-methylpyridin-3-yl)methyl]-1-ethyl-N-[(4R)-1-methyl-1H,4H,5H,6H-cyclopenta[d]imidazol-4-yl]-1H-pyrazole-5-carboxamide], the IC50 – broadly, the midpoint of a concentration-inhibition curve – against Human PKK was 0.0022 µM; in assay [1] it was 0.47 µM.
In the case of `CCn1nc(Cc2ccc(N3CC4CC4C3)nc2C)cc1C(=O)N[C@@H]1CCc2c1ncn2C` (stereo partly drawn) [Example 164, 3-[(6-{3-Azabicyclo[3.1.0]hexan-3-yl}-2-methylpyridin-3-yl)methyl]-1-ethyl-N-[(4R)-1-methyl-1H,4H,5H,6H-cyclopenta[d]imidazol-4-yl]-1H-pyrazole-5-carboxamide], the half-inhibitory concentration (IC50) stood at 0.0018 µM at Human PKK and 0.443 µM in assay [1].
As for `CCc1nc(N2CC3CC3C2)ccc1Cc1cc(C(=O)N[C@@H]2CCc3c2ncn3C)[nH]n1` (stereo partly drawn) [Example 165, 3-[(6-{3-Azabicyclo[3.1.0]hexan-3-yl}-2-ethylpyridin-3-yl)methyl]-N-[(4R)-1-methyl-1H,4H,5H,6H-cyclopenta[d]imidazol-4-yl]-1H-pyrazole-5-carboxamide], the results for the concentration for half-maximal inhibition (IC50) (at Human PKK; in assay [1]) were 0.0008 µM and 0.342 µM, respectively.
Taken in the same sequence, the figures for `CCc1nc(N2CC3CC3C2)ccc1Cc1cc(C(=O)N[C@@H]2CCc3c2ncn3C)n(C)n1` (stereo partly drawn) [Example 166, 3-[(6-{3-Azabicyclo[3.1.0]hexan-3-yl}-2-ethylpyridin-3-yl)methyl]-1-methyl-N-[(4R)-1-methyl-1H,4H,5H,6H-cyclopenta[d]imidazol-4-yl]-1H-pyrazole-5-carboxamide] were 0.001 µM and 0.193 µM.
Taken in the same sequence, the figures for `Cc1nc(N2CC3C(C2)C3(F)F)ccc1Cc1cc(C(=O)N[C@@H]2CCc3c2ncn3C)n(C)n1` (stereo partly drawn) [Example 167, 3-[(6-{6,6-Difluoro-3-azabicyclo[3.1.0]hexan-3-yl}-2-methylpyridin-3-yl)methyl]-1-methyl-N-[(4R)-1-methyl-1H,4H,5H,6H-cyclopenta-[d]imidazol-4-yl]-1H-pyrazole-5-carboxamide] were 0.0013 µM and 0.272 µM.
Consider `Cc1nc(N2CC3CC3C2)ccc1Cc1cc(C(=O)N[C@@H]2CCc3c2ncn3C)n(C)n1` (stereo partly drawn) [Example 168, 3-[(6-{3-Azabicyclo[3.1.0]hexan-3-yl}-2-methylpyridin-3-yl)methyl]-1-methyl-N-[(4R)-1-methyl-1H,4H,5H,6H-cyclopenta[d]imidazol-4-yl]-1H-pyrazole-5-carboxamide], for which the IC50 at Human PKK was 0.0015 µM; in assay [1], 1.86 µM.

The record behind these values is patent US12479827B2, “Heteroaromatic carboxamide derivatives as plasma kallikrein inhibitors” (Boehringer Ingelheim International GmbH, priority 2020, dated 2025).
